These results are taken from article PMC7699381, “Rare-Earth Metal Complexes of the Antibacterial Drug Oxolinic Acid: Synthesis, Characterization, DNA/Protein Binding and Cytotoxicity Studies” (Molecules, 2020).

Data set [1] deals with LoVo (human colon adenocarcinoma). As to the kind of experiment: MTS cytotoxicity assay, LoVo cells. Format: cell-based. The following applies: 48 h of incubation. As to the method: (§1) For the evaluation of the cytotoxic effects of the complexes and ligand two human cancer cell lines were used, namely MDA-MB 231 (human breast adenocarcinoma) and LoVo (human colon adenocarcinoma); a normal cell line, human umbilical vein endothelial cells (HUVEC), was used as a reference. […] After 24 h and 48 h, respectively, cell viability was evaluated through MTS assay (data shown in Figures S16–S18) and the IC50 values were calculated (Table 5). The cytotoxicity assay is based on the ability of metabolically active cells to reduce MTS, a yellow tetrazolium salt, to the colored formazan, soluble in the culture medium; the concentration of formazan can be spectrophotometrically determined. […] PES is a cationic dye with high chemical stability that binds to MTS and forms a stable solution. […] The reduced MTS to formazan was spectrophotometrically measured at λ = 492 nm. The test was run on two cancer cell lines, LoVo and MDA-MB 231, and on a normal cell line, HUVEC. […] Cell viability data were obtained in triplicate (n = 3) and expressed as mean values ± standard deviations (SD). […] All assays were performed in 96-well microtiter plates with flat bottom (Falcon), using CellTiter 96 Aqueous One Solution Cell Proliferation Assay (Promega), an MTS-based colorimetric assay. The formazan was spectrophotometrically measured using the Tecan GENios Spectrophotometer.

For data set [2], the system named is MDA-MB 231 (human breast adenocarcinoma). The data set can be described thus: MTS cytotoxicity assay, MDA-MB 231 cells. The following applies: 48 h of incubation. The format is cell-based. As to the method:
as §1

In data set [3] the test system is HUVEC (normal human umbilical vein endothelial cells). As to the kind of experiment: MTS cytotoxicity assay, HUVEC normal cells. The following applies: 48 h of incubation. The format is cell-based. As to the method:
as §1

Data set [4] relates to CT-DNA (double-stranded calf-thymus DNA). As to the kind of experiment: DNA binding by UV-Vis spectra (titration with CT-DNA). The following applies: 20 µM compound, 0–40 µM DNA, Tris-HCl pH 7.4, room temperature.
For the next data set, the system named is EB-DNA system (CT-DNA). As to the kind of experiment: Competitive binding assay with ethidium bromide (EB) through fluorescence spectroscopy. Details: species or system calf. The following applies: 10 µM CT-DNA, 2 µM EB; for Ksv (Stern-Volmer quenching constant, EB-DNA system): 0–40 µM compound, λex 500 nm; for K50 (EB Displacement Assay): concentration corresponding to 50% binding. The source says: The manner of binding to the DNA macromolecule can be investigated through competitive binding studies with ethidium bromide (3,8-diamino-5-ethyl-6-phenylphenanthridinium bromide), a fluorescent dye; due to its aromatic ring, it can intercalate between two adjacent base pairs in the DNA structure and form a complex which emits fluorescent light; displacing EB results in a quenching effect. The Stern-Volmer constant (KSV) and the dissociation constant (K50) have been calculated from the resulting data.
Competitive binding studies were carried out on a Jasco FP 6500 fluorometer at room temperature, using quartz cells of 1 cm path-length. The fluorescence spectra were recorded on 1.6 mL samples containing 10 µM CT-DNA and 2 µM EB in the absence and presence of increasing amounts (0–40 µM with an increment of 5 µM) of complexes and free ligands, respectively, after being kept in contact for 10 min at room temperature, under continuous stirring and in the dark. The excitation wavelength used was 500 nm and the spectra was recorded in the 520–800 nm range. Two control samples were used, the first one containing DMSO, DNA and EB and the second one just the complex.
Data from the assay can be interpreted using the classical Stern-Volmer equation (Equation (3)):(3) F0/F=1+ KSV·[Q] where F0 and F are the fluorescence intensities of the EB-DNA samples in the absence and presence of the tested compounds and [Q] is the concentration of the compound; KSV is the Stern-Volmer constant and can be calculated from the plot of F0/F vs. [Q] as the slope.
The ratio of binding relative to the control sample exposed only to DMSO was plotted against the logarithm of concentration. The data points were fitted using the modified Hill function with offset (Origin®) (Equation (4)):(4) y=A1+(A2−A1)×x^n/K50^n+x^n where y is the ratio of binding (F/F0) and x is the concentration, A1 is the minimum of y values, A2 is the maximum of y values, K50 is the concentration corresponding to 50% binding and n is the Hill coefficient.

In a further data set the target is T1, Apo-transferrin (apo-Tf) (Homo sapiens, UniProt P02787).
T1 construct: purchased Sigma Aldrich Chemical Co. (Schnelldorf, Germany)
T1 sequence (P02787 20-698): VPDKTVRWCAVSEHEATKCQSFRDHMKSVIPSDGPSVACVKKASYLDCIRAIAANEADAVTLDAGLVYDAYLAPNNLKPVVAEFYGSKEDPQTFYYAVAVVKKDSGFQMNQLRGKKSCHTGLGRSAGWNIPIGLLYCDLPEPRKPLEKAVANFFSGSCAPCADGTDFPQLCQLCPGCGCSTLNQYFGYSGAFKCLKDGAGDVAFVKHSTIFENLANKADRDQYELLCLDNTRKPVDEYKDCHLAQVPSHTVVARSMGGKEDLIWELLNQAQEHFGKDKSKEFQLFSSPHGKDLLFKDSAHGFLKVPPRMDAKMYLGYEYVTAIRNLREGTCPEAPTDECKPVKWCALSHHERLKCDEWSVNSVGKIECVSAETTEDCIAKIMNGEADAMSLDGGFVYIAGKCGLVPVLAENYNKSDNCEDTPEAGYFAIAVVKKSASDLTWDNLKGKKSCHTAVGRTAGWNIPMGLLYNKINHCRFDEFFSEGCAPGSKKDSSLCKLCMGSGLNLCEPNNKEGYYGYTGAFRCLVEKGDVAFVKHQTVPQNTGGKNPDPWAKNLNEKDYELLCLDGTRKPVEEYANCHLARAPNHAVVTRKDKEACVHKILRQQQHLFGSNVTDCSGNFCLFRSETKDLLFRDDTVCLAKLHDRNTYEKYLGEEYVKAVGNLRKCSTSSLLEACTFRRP
The data set can be described thus: Fluorescence quenching of apo-transferrin. The format is binding. The following applies: 298 K; for Ksv (Stern-Volmer constant), apo-Tf: 1 µM apo-Tf, 0–8 µM compound, pH 7.4; for Kq (bimolecular quenching constant), apo-Tf: from KSV = Kq τ0; for fa (fraction of fluorophore accessible to the quencher), apo-Tf: modified Stern-Volmer; for Kd: read-out: Kd, apo-Tf.

Data set [5] addresses T2, Human serum albumin (HSA) (Homo sapiens, UniProt P02768).
Data set [6] concerns the target T2, Human serum albumin (HSA). The data set can be described thus: Fluorescence quenching of human serum albumin. The following applies: 298 K; for Ksv (Stern-Volmer constant), HSA: 2.5 µM HSA, 0–8 µM compound, pH 7.4; for Kq (bimolecular quenching constant), HSA: from KSV = Kq τ0; for fa (fraction of fluorophore accessible to the quencher), HSA: modified Stern-Volmer.

Where only a bound is given, the exact number is not on record here.

T2 sequence (P02768 25-609): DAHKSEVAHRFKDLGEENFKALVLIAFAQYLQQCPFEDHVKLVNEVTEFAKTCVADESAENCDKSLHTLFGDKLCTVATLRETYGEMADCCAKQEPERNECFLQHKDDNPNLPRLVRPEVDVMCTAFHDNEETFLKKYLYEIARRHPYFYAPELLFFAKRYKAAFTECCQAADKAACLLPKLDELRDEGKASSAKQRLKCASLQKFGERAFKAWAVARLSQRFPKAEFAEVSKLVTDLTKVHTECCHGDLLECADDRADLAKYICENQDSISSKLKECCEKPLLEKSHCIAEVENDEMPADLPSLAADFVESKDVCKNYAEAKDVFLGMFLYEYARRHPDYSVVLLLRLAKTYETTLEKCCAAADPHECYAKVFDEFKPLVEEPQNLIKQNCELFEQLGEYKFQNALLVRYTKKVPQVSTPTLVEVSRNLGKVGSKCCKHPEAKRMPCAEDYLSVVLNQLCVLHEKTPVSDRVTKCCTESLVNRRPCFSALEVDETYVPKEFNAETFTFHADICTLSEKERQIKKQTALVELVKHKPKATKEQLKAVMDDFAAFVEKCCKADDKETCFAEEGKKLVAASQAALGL

As for `CCn1cc(C(=O)[O][Sm]([OH])[O]C(=O)c2cn(CC)c3cc4c(cc3c2=O)OCO4)c(=O)c2cc3c(cc21)OCO3.O.O` [Sm oxo, [Sm(oxo)(OH)(H2O)] · H2O], inhibition in data set [1] was half-maximal at 41.5 ± 15.3 µM (IC50). The compound also showed an IC50 in data set [2] of 40.4 ± 6.27 µM. The compound further registered an IC50 in data set [3] of over 200 µM. Also, the “Kb (DNA binding constant)” value in data set [4] was 9.33 (± 1.46) × 10^4 L∙mol^−1. In addition, in the data set on EB-DNA system (CT-DNA), the “Ksv (Stern-Volmer quenching constant, EB-DNA system)” value is on record as “(1.21 ± 0.03) × 10^4” and the “K50 (EB Displacement Assay)” value is 41.55 ± 19.32 µM. Also, on Apo-transferrin (apo-Tf), the “Ka (association binding constant), apo-Tf” value is given as “(4.16 ± 1.09) × 10^4 M^−1”; the “n (Hill Coefficient), apo-Tf” value is listed as 2.03 ± 0.32; the “n (Number of Binding Sites), apo-Tf” value is reported as 0.95 ± 0.02; the “Ksv (Stern-Volmer constant), apo-Tf” value is on record as “(9.34 ± 0.66) × 10^4 M^−1”. At Apo-transferrin (apo-Tf), the “Kq (bimolecular quenching constant), apo-Tf” value came out at 9.34e+12 M⁻¹ s⁻¹; the “fa (fraction of fluorophore accessible to the quencher), apo-Tf” value is 0.85 ± 0.05; the Kd came to 5.73 ± 0.55 µM. In data set [5], this compound yielded a Kd of 4.69 ± 0.87 µM. Moreover, in data set [6], the “Ka (association binding constant), HSA” value is recorded as “(4.28 ± 2.12) × 10^5 M^−1”; the “n (Hill Coefficient), HSA” value stood at 1.55 ± 0.37; the “n (Number of Binding Sites), HSA” value was determined as 1.11 ± 0.04; the “Ksv (Stern-Volmer constant), HSA” value is on record as “(6.56 ± 0.90) × 10^4 M^−1”. In addition, in data set [6], the “Kq (bimolecular quenching constant), HSA” value worked out at 6.56e+12 M⁻¹ s⁻¹ and the “fa (fraction of fluorophore accessible to the quencher), HSA” value is reported as 1.44 ± 0.15.

In data set [1], `CCn1cc(C(=O)[O][La]([OH])[O]C(=O)c2cn(CC)c3cc4c(cc3c2=O)OCO4)c(=O)c2cc3c(cc21)OCO3.O` [La oxo, [La(oxo)(OH)(H2O)]] returned an IC50 of 52.1 ± 5.54 µM. For the same compound, in data set [2], the IC50 was over 100 µM. In addition, the 50% inhibitory concentration (IC50) in data set [3] was over 200 µM. Moreover, the “Kb (DNA binding constant)” value in data set [4] is listed as 2.57 (± 0.17) × 10^5 L∙mol^−1. Besides, in the data set with EB-DNA system (CT-DNA), the “Ksv (Stern-Volmer quenching constant, EB-DNA system)” value is recorded as 1.27 (±0.03) × 10^4 and the “K50 (EB Displacement Assay)” value is listed as 37.05 ± 8.86 µM. The “Ksv (Stern-Volmer quenching constant, EB-DNA system)” value in the data set on EB-DNA system (CT-DNA) (listed as La-oxo) is recorded as “(1.27 ± 0.03) × 10^4”. Further, on Apo-transferrin (apo-Tf), the “Ka (association binding constant), apo-Tf” value is recorded as “(0.53 ± 0.23) × 10^4 M^−1”; the “n (Hill Coefficient), apo-Tf” value is 1.71 ± 0.21; the “n (Number of Binding Sites), apo-Tf” value worked out at 0.77 ± 0.03; the “Ksv (Stern-Volmer constant), apo-Tf” value was “(14.13 ± 1.46) × 10^4 M^−1”. On Apo-transferrin (apo-Tf), the “Kq (bimolecular quenching constant), apo-Tf” value stood at 1.413e+13 M⁻¹ s⁻¹; the “fa (fraction of fluorophore accessible to the quencher), apo-Tf” value worked out at 0.68 ± 0.03; the dissociation constant Kd stood at 8.89 ± 2.11 µM. Moreover, the Kd in data set [5] is 6.22 ± 1.05 µM. In data set [6], the “Ka (association binding constant), HSA” value is “(5.80 ± 2.01) × 10^5 M^−1”; the “n (Hill Coefficient), HSA” value stood at 1.74 ± 0.21; the “n (Number of Binding Sites), HSA” value was 1.14 ± 0.02; the “Ksv (Stern-Volmer constant), HSA” value is on record as “(6.82 ± 0.74) × 10^4 M^−1”. Also, in data set [6], the “Kq (bimolecular quenching constant), HSA” value came to 6.82e+12 M⁻¹ s⁻¹ and the “fa (fraction of fluorophore accessible to the quencher), HSA” value was 1.26 ± 0.11.
